The record followed here is the supplement of paper PMC10307832.

Common to all, as to experiment: relative viability (nuclei count vs DMSO), 5 days (fraction); higher = more cells survive
Compound in experiment [1]: Cc1ccc(C(=O)Nc2cccc(C(F)(F)F)c2)cc1Nc1cncc(C(N)=O)c1 [ALW-II-49-7] + CCNC(=O)c1noc(-c2cc(C(C)C)c(O)cc2O)c1-c1ccc(CN2CCOCC2)cc1 [Luminespib] (partner 0.01 µM)
In a few lines:
(§1)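 Values are medians from duplicate plates. Each reflects relative viability, defined as the nuclei count of treated wells over that of vehicle wells. Lung cancer cell lines in 1536-well plates were pin-tool dosed one day after seeding with one drug alone or with a fixed anchor-drug dose plus five library-drug doses (not always all listed) in √10 steps, then fixed, stained and imaged at 4× after 5 days.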

Compound in experiment [2]: Cc1ccc(C(=O)Nc2cccc(C(F)(F)F)c2)cc1Nc1cncc(C(N)=O)c1 [ALW-II-49-7] + N=C(N)NC(=N)NCCc1ccccc1 [Phenformin] (partner 250 µM)
An outline of the steps:
as §1

Compound in experiment [3]: Cc1nc(Nc2ncc(C(=O)Nc3c(C)cccc3Cl)s2)cc(N2CCN(CCO)CC2)n1 [Dasatinib] + COc1cc2c(Oc3ccc(NC(=O)C4(C(=O)Nc5ccc(F)cc5)CC4)cc3F)ccnc2cc1OCCCN1CCOCC1 [Foretinib] (partner 0.25 µM)
An outline of the steps:
as §1

Compound in experiment [4]: Cc1nc(Nc2ncc(C(=O)Nc3c(C)cccc3Cl)s2)cc(N2CCN(CCO)CC2)n1 [Dasatinib] + CS(=O)(=O)N1CCN(Cc2cc3nc(-c4cccc5[nH]ncc45)nc(N4CCOCC4)c3s2)CC1 [Pictilisib] (partner 1 µM)
In a few lines:
as §1

With NCI-H650, the relative viability worked out at 0.853 in experiment [1] (first compound 0.08 µM); 0.972 in experiment [1] (first compound 0.253 µM); 0.632 in experiment [1] (first compound 0.8 µM); 0.722 in experiment [1] (first compound 2.53 µM); 0.526 in experiment [1] (first compound 8 µM); 0.519 in experiment [2] (first compound 0.08 µM). Further, the relative viability in experiment [2] (first compound 0.253 µM) is 0.481; in experiment [2] (first compound 0.8 µM), 0.396; in experiment [2] (first compound 2.53 µM) it was 0.449; in experiment [2] (first compound 8 µM), 0.334; in experiment [3] (first compound 0.005 µM), 1.02; in experiment [3] (first compound 0.01581 µM) it was 0.875. The relative viability in experiment [3] (first compound 0.05 µM) was found to be 1.01; in experiment [3] (first compound 0.1581 µM) it was 0.759; in experiment [3] (first compound 0.5 µM), 0.475; in experiment [4] (first compound 0.005 µM), 0.862; in experiment [4] (first compound 0.01581 µM), 0.794; in experiment [4] (first compound 0.05 µM) it was 0.898. The relative viability was determined as 0.497 in experiment [4] (first compound 0.1581 µM) and 0.345 in experiment [4] (first compound 0.5 µM).
For NCI-H661, the relative viability amounted to 1.04 in experiment [1] (first compound 0.08 µM); 1.01 in experiment [1] (first compound 0.253 µM); 0.913 in experiment [1] (first compound 0.8 µM); 0.976 in experiment [1] (first compound 2.53 µM); 0.998 in experiment [1] (first compound 8 µM); 0.28 in experiment [2] (first compound 0.08 µM). The relative viability came to 0.282 in experiment [2] (first compound 0.253 µM); 0.278 in experiment [2] (first compound 0.8 µM); 0.295 in experiment [2] (first compound 2.53 µM); 0.297 in experiment [2] (first compound 8 µM); 1.02 in experiment [3] (first compound 0.005 µM); 1.03 in experiment [3] (first compound 0.01581 µM). Further, the relative viability in experiment [3] (first compound 0.05 µM) was 0.964; in experiment [3] (first compound 0.1581 µM), 0.735; in experiment [3] (first compound 0.5 µM) it was 0.599; in experiment [4] (first compound 0.005 µM) it was 0.269; in experiment [4] (first compound 0.01581 µM), 0.272; in experiment [4] (first compound 0.05 µM), 0.225. For the same cell line, the relative viability in experiment [4] (first compound 0.1581 µM) was found to be 0.274; in experiment [4] (first compound 0.5 µM), 0.269.
Regarding NCI-H727, the relative viability in experiment [1] (first compound 0.08 µM) is 0.419; in experiment [1] (first compound 0.253 µM), 0.336; in experiment [1] (first compound 0.8 µM) it was 0.392; in experiment [1] (first compound 2.53 µM), 0.367; in experiment [1] (first compound 8 µM), 0.239; in experiment [2] (first compound 0.08 µM), 0.52. The relative viability in experiment [2] (first compound 0.253 µM) amounted to 0.593; in experiment [2] (first compound 0.8 µM), 0.537; in experiment [2] (first compound 2.53 µM) it was 0.475; in experiment [2] (first compound 8 µM) it was 0.51; in experiment [3] (first compound 0.005 µM), 0.616; in experiment [3] (first compound 0.01581 µM), 0.512. For the same cell line, the relative viability in experiment [3] (first compound 0.05 µM) came out at 0.431; in experiment [3] (first compound 0.1581 µM) it was 0.278; in experiment [3] (first compound 0.5 µM), 0.185; in experiment [4] (first compound 0.005 µM), 0.33; in experiment [4] (first compound 0.01581 µM), 0.267; in experiment [4] (first compound 0.05 µM) it was 0.258. Further, the relative viability in experiment [4] (first compound 0.1581 µM) amounted to 0.209; in experiment [4] (first compound 0.5 µM), 0.176.
Regarding NCI-H838, the relative viability in experiment [1] (first compound 0.08 µM) worked out at 0.233; in experiment [1] (first compound 0.253 µM), 0.257; in experiment [1] (first compound 0.8 µM) it was 0.344; in experiment [1] (first compound 2.53 µM), 0.272; in experiment [1] (first compound 8 µM) it was 0.211; in experiment [2] (first compound 0.08 µM), 0.412. The relative viability in experiment [2] (first compound 0.253 µM) was 0.45; in experiment [2] (first compound 0.8 µM), 0.628; in experiment [2] (first compound 2.53 µM), 0.626; in experiment [2] (first compound 8 µM), 0.442; in experiment [3] (first compound 0.005 µM) it was 0.679; in experiment [3] (first compound 0.01581 µM) it was 0.654. Moreover, the relative viability worked out at 0.552 in experiment [3] (first compound 0.05 µM); 0.313 in experiment [3] (first compound 0.1581 µM); 0.236 in experiment [3] (first compound 0.5 µM); 0.444 in experiment [4] (first compound 0.005 µM); 0.297 in experiment [4] (first compound 0.01581 µM); 0.276 in experiment [4] (first compound 0.05 µM). Moreover, the relative viability in experiment [4] (first compound 0.1581 µM) came to 0.218; in experiment [4] (first compound 0.5 µM), 0.189.
